Results on one substance are retold here after US20240189388A1, “MEDICATION FOR TREATING LUNG INJURY” (SHANGHAI SEME CELL TECHNOLOGY CO., LTD., priority 2021, published 2024).

In the test the test system is rats with a lung injury. Description: Survival test, LPS lung injury rats (Example 2). Format: in vivo, Sprague-Dawley rats. As to conditions: test sample group, 0.75 mg/kg intravenous, 6 rats. The protocol:
Animal grouping: 18 qualified male animals were randomly divided into a normal control group, a model control group, and a test sample group according to their body weight measured before grouping, with 6 animals per group.
D0: The animals in the normal control group were intraperitoneally injected with sodium chloride injection (1 ml/kg), while the animals in other groups were intraperitoneally injected with lipopolysaccharides (1 mg/kg, 1 ml/kg).
D1: After 16 h (+30 min) of intraperitoneal injection, the animals were anesthetized by inhaling isoflurane. The animals in the normal control group were nebulized with sodium chloride injection (1 mL/kg) in the trachea, while the animals in other groups were nebulized with lipopolysaccharides (5 mg/kg, 1 ml/kg) in the trachea.
D1: About 3 h to 5 h after the intratracheal nebulization of the modeling reagent (LPS), the animals were administrated with the test sample or solvent according to the following table 8: […]
After planned euthanasia, a rate of a quantity of live animals in each group to a total quantity of animals in each group in an experimental period was calculated.
Survival rate (%)=the quantity of live animals in a group/the total quantity of animals in the group×100%.

Annexin A5 returned a Survival rate of 100%.
